Results from ChEMBL document CHEMBL1201862, “PubChem BioAssay data set” (2004).
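Exposure lasted 48 hours, with cells grown in 96-well plates and compounds tested at five concentrations. GI50 is the concentration that inhibits growth by half.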 The source made the active and inactive calls. Rule as the data show it: active = GI50 up to about 1.1 µM and inactive = higher.

Experiments:
Test in all cases: growth of human tumour cells (NCI), 48 h
[1] = test system: 786-0
[2] = test system: A498
[3] = test system: A549
[4] = test system: ACHN
[5] = test system: BT-549
[6] = test system: CAKI-1
[7] = test system: COLO 205
[8] = test system: DU-145
[9] = test system: EKVX
[10] = test system: HCC 2998
[11] = test system: HCT-116
[12] = test system: HCT-15
[13] = test system: HL-60
[14] = test system: HOP-62
[15] = test system: HOP-92
[16] = test system: HT-29
[17] = test system: Hs-578T
[18] = test system: IGROV-1
[19] = test system: K562
[20] = test system: KM12
[21] = test system: LOX IMVI
[22] = test system: M14
[23] = test system: MCF7
[24] = test system: MDA-MB-231
[25] = test system: MDA-MB-435
[26] = test system: MDA-N
[27] = test system: MOLT-4
[28] = test system: Malme-3M
[29] = test system: NCI-H226
[30] = test system: NCI-H23
[31] = test system: NCI-H522
[32] = test system: NCI/ADR-RES
[33] = test system: OVCAR-3
[34] = test system: OVCAR-4
[35] = test system: OVCAR-5
[36] = test system: OVCAR-8
[37] = test system: PC-3
[38] = test system: RPMI-8226
[39] = test system: RXF 393
[40] = test system: SF-268
[41] = test system: SF-295
[42] = test system: SK-MEL-28
[43] = test system: SK-MEL-2
[44] = test system: SK-MEL-5
[45] = test system: SK-OV-3
[46] = test system: SN12C
[47] = test system: SNB-19
[48] = test system: SR
[49] = test system: SW-620
[50] = test system: T47D
[51] = test system: TK-10
[52] = test system: U-251
[53] = test system: UACC-257
[54] = test system: UACC-62
[55] = test system: UO-31
[56] = test system: CCRF-CEM
[57] = test system: NCI-H460
[58] = test system: SF-539
[59] = test system: SNB-75

## CCC1c2[nH]c3ccccc3c2C[C@H]2C(=O)N3CCC[C@H]3C(=O)N12 (stereo partly drawn)
[1]
  GI50: > 100 µM (inactive)
[2]
  GI50: > 100 µM (inactive)
[3]
  GI50: > 100 µM (inactive)
[4]
  GI50: > 100 µM (inactive)
[5]
  GI50: > 100 µM (inactive)
[6]
  GI50: > 100 µM (inactive)
[7]
  GI50: > 100 µM (inactive)
[8]
  GI50: > 100 µM (inactive)
[9]
  GI50: > 100 µM (inactive)
[10]
  GI50: > 100 µM (inactive)
[11]
  GI50: 60.7 µM (inactive)
[12]
  GI50: 53.7 µM
[13]
  GI50: > 100 µM (inactive)
[14]
  GI50: > 100 µM (inactive)
[15]
  GI50: > 100 µM (inactive)
[16]
  GI50: > 100 µM (inactive)
[17]
  GI50: > 100 µM (inactive)
[18]
  GI50: > 100 µM (inactive)
[19]
  GI50: > 100 µM (inactive)
[20]
  GI50: 71.1 µM (inactive)
[21]
  GI50: > 100 µM (inactive)
[22]
  GI50: > 100 µM (inactive)
[23]
  GI50: > 100 µM (inactive)
[24]
  GI50: > 100 µM (inactive)
[25]
  GI50: > 100 µM (inactive)
[26]
  GI50: > 100 µM (inactive)
[27]
  GI50: 97.7 µM (inactive)
[28]
  GI50: 42.5 µM (inactive)
[29]
  GI50: > 100 µM (inactive)
[30]
  GI50: > 100 µM (inactive)
[31]
  GI50: 75.7 µM (inactive)
[32]
  GI50: > 100 µM (inactive)
[33]
  GI50: > 100 µM (inactive)
[34]
  GI50: > 100 µM (inactive)
[35]
  GI50: > 100 µM (inactive)
[36]
  GI50: > 100 µM (inactive)
[37]
  GI50: 37.4 µM (inactive)
[38]
  GI50: 50.9 µM (inactive)
[39]
  GI50: > 100 µM (inactive)
[40]
  GI50: > 100 µM (inactive)
[41]
  GI50: > 100 µM (inactive)
[42]
  GI50: > 100 µM (inactive)
[43]
  GI50: > 100 µM (inactive)
[44]
  GI50: 30.4 µM (inactive)
[45]
  GI50: > 100 µM (inactive)
[46]
  GI50: > 100 µM (inactive)
[47]
  GI50: > 100 µM (inactive)
[48]
  GI50: 59.3 µM (inactive)
[49]
  GI50: 92.9 µM (inactive)
[50]
  GI50: 67.8 µM (inactive)
[51]
  GI50: > 100 µM (inactive)
[52]
  GI50: 92.5 µM (inactive)
[53]
  GI50: 48.6 µM (inactive)
[54]
  GI50: 70.6 µM (inactive)
[55]
  GI50: > 100 µM (inactive)

## O=C(OCc1ccccc1)N1CCNCCNCCN(C(=O)OCc2ccccc2)CCNCC1
[1]
  GI50: 14.3 µM (inactive)
[2]
  GI50: 20.8 µM (inactive)
[3]
  GI50: 63.4 µM (inactive)
[4]
  GI50: 39.9 µM (inactive)
[5]
  GI50: 60.7 µM (inactive)
[6]
  GI50: 20 µM (inactive)
[56]
  GI50: 18.8 µM (inactive)
[7]
  GI50: 13.6 µM (inactive)
[8]
  GI50: > 100 µM (inactive)
[9]
  GI50: 24 µM (inactive)
[11]
  GI50: 14 µM (inactive)
[12]
  GI50: 18.7 µM
[13]
  GI50: 8.2 µM (inactive)
[14]
  GI50: 36.7 µM (inactive)
[15]
  GI50: 20.6 µM (inactive)
[16]
  GI50: 12.1 µM (inactive)
[17]
  GI50: 19.1 µM (inactive)
[18]
  GI50: 32.1 µM (inactive)
[19]
  GI50: 13 µM (inactive)
[20]
  GI50: 29.6 µM (inactive)
[21]
  GI50: 16.3 µM (inactive)
[22]
  GI50: 16.6 µM (inactive)
[23]
  GI50: 17.8 µM (inactive)
[24]
  GI50: 16.1 µM (inactive)
[25]
  GI50: 16.1 µM (inactive)
[26]
  GI50: 16.2 µM (inactive)
[27]
  GI50: 16.7 µM (inactive)
[28]
  GI50: 20.1 µM (inactive)
[29]
  GI50: > 100 µM (inactive)
[57]
  GI50: 21.2 µM (inactive)
[31]
  GI50: 15.7 µM (inactive)
[32]
  GI50: 50.5 µM (inactive)
[33]
  GI50: 56.9 µM (inactive)
[34]
  GI50: 41 µM (inactive)
[35]
  GI50: 33.3 µM (inactive)
[36]
  GI50: 17.3 µM (inactive)
[37]
  GI50: 41.6 µM (inactive)
[38]
  GI50: 19.5 µM (inactive)
[41]
  GI50: 16.4 µM (inactive)
[58]
  GI50: 18.5 µM (inactive)
[42]
  GI50: 15.3 µM (inactive)
[43]
  GI50: 17.5 µM (inactive)
[44]
  GI50: 14.1 µM (inactive)
[45]
  GI50: > 100 µM (inactive)
[46]
  GI50: 47.4 µM (inactive)
[47]
  GI50: 68.5 µM (inactive)
[59]
  GI50: 21.5 µM (inactive)
[48]
  GI50: 14.1 µM (inactive)
[49]
  GI50: 17.1 µM (inactive)
[50]
  GI50: 17.1 µM (inactive)
[51]
  GI50: 24.8 µM (inactive)
[52]
  GI50: 17.9 µM (inactive)
[53]
  GI50: 16.5 µM (inactive)
[54]
  GI50: 17.7 µM (inactive)
[55]
  GI50: 12.7 µM (inactive)

## O=C1/C(=C/c2cccs2)N=C(c2ccccc2)N1c1nc2ccccc2s1
[1]
  GI50: 41.3 µM (inactive)
[2]
  GI50: > 100 µM (inactive)
[3]
  GI50: 41.5 µM (inactive)
[4]
  GI50: > 100 µM (inactive)
[5]
  GI50: 53.3 µM (inactive)
[6]
  GI50: 14 µM (inactive)
[56]
  GI50: 0.162 µM (active)
[8]
  GI50: 67.3 µM (inactive)
[9]
  GI50: 49.9 µM (inactive)
[10]
  GI50: > 100 µM (inactive)
[11]
  GI50: 38.4 µM (inactive)
[12]
  GI50: 82.4 µM
[13]
  GI50: > 100 µM (inactive)
[14]
  GI50: > 100 µM (inactive)
[15]
  GI50: 26.5 µM (inactive)
[16]
  GI50: 36.3 µM (inactive)
[17]
  GI50: 14.1 µM (inactive)
[18]
  GI50: 16 µM (inactive)
[19]
  GI50: 47.5 µM (inactive)
[20]
  GI50: > 100 µM (inactive)
[21]
  GI50: > 100 µM (inactive)
[22]
  GI50: > 100 µM (inactive)
[23]
  GI50: 49.9 µM (inactive)
[24]
  GI50: > 100 µM (inactive)
[25]
  GI50: > 100 µM (inactive)
[26]
  GI50: 91.6 µM (inactive)
[27]
  GI50: 11.7 µM (inactive)
[29]
  GI50: > 100 µM (inactive)
[30]
  GI50: > 100 µM (inactive)
[57]
  GI50: 68.5 µM (inactive)
[31]
  GI50: 4.14 µM (inactive)
[32]
  GI50: 64.4 µM (inactive)
[33]
  GI50: > 100 µM (inactive)
[35]
  GI50: > 100 µM (inactive)
[36]
  GI50: 62.1 µM (inactive)
[37]
  GI50: > 100 µM (inactive)
[38]
  GI50: 7.45 µM (inactive)
[39]
  GI50: 33.3 µM (inactive)
[40]
  GI50: 7.74 µM (inactive)
[41]
  GI50: > 100 µM (inactive)
[58]
  GI50: > 100 µM (inactive)
[42]
  GI50: > 100 µM (inactive)
[43]
  GI50: > 100 µM (inactive)
[44]
  GI50: > 100 µM (inactive)
[46]
  GI50: > 100 µM (inactive)
[47]
  GI50: > 100 µM (inactive)
[48]
  GI50: 33.6 µM (inactive)
[49]
  GI50: 86.9 µM (inactive)
[50]
  GI50: 57.3 µM (inactive)
[51]
  GI50: > 100 µM (inactive)
[52]
  GI50: 95.1 µM (inactive)
[53]
  GI50: > 100 µM (inactive)
[55]
  GI50: 24.2 µM (inactive)
